For one test, the system named is C. neoformans. As to the kind of experiment: Viability of C. neoformans (viable cells relative to EtOH control culture). The settings on record: for log reduction at 300 µM: Cryptococcus neoformans. It is filed as cell-based, Cryptococcus neoformans. As to the method: Panel A, survey of the effects of several oxatetradecanoic acids on the growth of C. neoformans. A culture of C. neoformans was grown at 30° C. in SAB media to midlog phase (A600 ~0.5). A single dose of fatty acid was then added to subcultures (final concentration=300 μM). EtOH(0.1%) was used as a negative control. Amphotericin B (AmB) was added (final concentraton=55 μM) as a positive control. Aliquots were withdrawn from the subcultures 0, 0.5, 2, 4, 7, 21, and 24 h after these additions and then absorbance at 600 nm was measured. All assays were done in duplicate or triplicate. A representative test is shown. Panel B, survey of the effects of oxatetradecanoic acids, dioxatetradecanoic acids and oxatridecanoic acids on the viability of C. neoformans. Fatty acid analog was added to the cultures as in Panel A. Aliquots were withdrawn 0.5, 2, 4, 7 or 8, and 24 h later and plated on SAB-agar at various dilutions to determine the number of viable organisms/ml culture. All assays were done in duplicate. Data from a representative test are expressed as the ratio of viable cells in treated cultures relative to a control culture that received 0.1% EtOH. A positive control culture received a single dose of amphotericin B (55 μM); Panel C, dose-dependent reduction in the viability of C. neoformans after addition of 4-oxatetradecanoic acid (O4) to cultures during log-phase growth at 30° C. in SAB. A single dose of the analog was given at T=0 h in the amount indicated and aliquots of the culture were withdrawn at various times to determine the number of viable cells. All assays were done in triplicate. A representative test is shown.
(§1) Saccharomyces cerevisiae strain YM2061 (MATa ura3-52 his3Δ200 ade2-101 lys2-801 met LEU2::pRY181 can1; Flick and Johnston, Mol. Cell. Biol. 10, 4757-4769 (1990), Candida albicans strain B311 (obtained from the American Type Tissue Culture, Rockville, Md.), or Cryptococcus neoformans strain L210425 (a clinical isolate that is part of the permanent culture collection of the Mycology Laboratory, Barnes Hospital, St. Louis, Mo.) were grown overnight at 30 C. The S. cerevisiae strain was incubated in YPD medium (1% bacto-yeast extract, Gibco, Long Island, N.Y.), 2% bacto-peptone (Gibco), 2% dextrose). The C. albicans and C. neoformans strains were grown in Sabouraud's media (SAB; 2% (w/v) dextrose, 1% bacto-peptone). The following morning the cultures were diluted into fresh medium to the desired density at 600 nm (early log phase), and subsequently incubated in a rotary shaker at 30° C. until an A600 =0.5 (mid log phase) was achieved. The culture was then divided into 10 ml aliquots. A single 10 μl aliquot of a stock solution of fatty acid analog (prepared in various concentrations using absolute ethanol) was added to the culture so that the final concentration of the compound was 100-500 μM (T=0). Ten microliters of ethanol alone was added to one 10 ml culture which served as the negative control. Amphotericin B (AmB; in the form of Fungizone, Squibb) was added (final concentration=55 μM) to another culture which served as the positive control. At T=0 and 0.5-24 h after addition of fatty acid analog to the subcultures, an aliquot was removed for determining the density of the subculture at 600 nm. Cell viability was determined at each of these time points by (i) serially diluting the aliquot in 0.15M NaCl and counting cell number in a hemocytometer and (ii) plating 2-3 of the dilutions in triplicate onto plates of SAB/agar (C. albicans and C. neoformans) or YPD/agar (S. cerevisiae). These plates were subsequently incubated at 30° C. for 24-48 hr to allow for the growth of colonies. The data were expressed as the ratio of viable cells/ml in the fatty acid analog treated subculture to the number of viable cells/ml in the negative (ethanol) control culture.

The next test relates to S. cerevisiae. As to the kind of experiment: Viability of S. cerevisiae. It is filed as cell-based. To be noted: Saccharomyces cerevisiae. As for the experimental part:
Oxatetradecanoic acids were added (final concentraton=25-500 μM) as a single dose to log phase cultures of C. alibcans grown in SAB at 30° C. (Panels A and B) and to log phase cultures of S. cerevisiae grown in YPD at 30° C. (Panels C and D). The results were compared to the number of viable organisms present in cultures treated with 0.1% EtOH alone. […] A single does of alphotericin B (final concentration=55 μM) was added to parallel cultures which served as positive controls. Assays were done in duplicate. Representative tests are shown.
as §1

Read-outs that look alike come from different tables or passages of the source.

As to `CCCCCCCCCCOCCC(=O)O` [O4, 4-oxatetradecanoic acid], the “time needed to produce the decrease in viable cells” value in the test on C. neoformans (300 μM single dose) is at most 1 h. In the test with C. neoformans (300 μM single dose, screening assay), the “fungicidal / fungistatic effect on C. neoformans” value is “fungicidal”. Further, the log reduction at 300 µM is 4 in the test with C. neoformans (300 μM single dose, relative to 0.1% EtOH control, read-out: decrease in viable cells (converted)); below 1 with C. neoformans (300 μM, between 1 and 7 h after treatment, read-out: further reductions in viable cell number); below 0.699 with S. cerevisiae (300 μM, 2 hr after addition, read-out: reductions in the number of viable S. cerevisiae). Also, the “cell number after single dose” value in the test on C. neoformans (between 8 and 24 hr after single dose) is “gradual increase in cell number”. In addition, in the test on C. neoformans (four doses, 100-300 μM), the “dose dependence of fungicidal activity” value is on record as “progressive reduction of viable cell number”. The log reduction at 500 µM in the test with S. cerevisiae (500 μM, read-out: reduction in the number of viable organisms (S. cerevisiae)) is 1 to 2.
